Measurements from US11851389B2, “Cationic lipids for nucleic acid delivery and preparation thereof” (RAMOT AT TEL-AVIV UNIVERSITY LTD., priority 2016, dated 2023).
Entries after “also recorded” stand apart in the source; their conditions may differ.

How the values were obtained:
Cynomolgus monkeys = test: Liver toxicity (serum ALT, AST) in non-human primate; type: in vivo; conditions: single i.v. 0.5 mg/kg, particles with siNC5, serum at 1 and 24 h, compared with MC3
Protocol: Cynomolgus monkeys (n=2 per group, males) received a single I.v. administration (1 ml/kg) of (0.5 mg/kg) of MC3 particles with siNC5 and lipid 38-based particles with siNC5 (0.5 mg/Kg). At 1 and 24 h post administration serum was collected at and analyzed for ALT, AST (by Roch Cobra Auto analyzer). Each data point is an average of 2 animals±SEM.

[1] = tested on: Human colon carcinoma cells (HCT 116); test: In vitro expression of LUC pDNA, luminometer; type: cell-based; conditions: HCT 116, LNPs-LUC pDNA with DOPE, Chol, PEG-DMG, 48 hrs
Protocol: Human colon carcinoma cells (HCT 116) were incubated with LNPs-LUC pDNA at different concentrations for 48 hrs. Luciferase expression was measured by luminometer. Lipofectamine 2000 (Lipo 2000) was used as positive control. LNPs were composed of lipid 38 and different amounts of co-lipid DOPE, along with other co-lipids such as Chol, PEG-DMG.

C57BL6/j mice [2] = test: In vivo delivery of luciferase mRNA to muscle cells, intramuscular, bioluminescence imaging; conditions: i.m., 1 mg/kg body weight
Protocol: LNPs composed of either lipid 54 or lipid 38 formulated with luciferase mRNA were administered intramuscularly in to C57BL6/j mice at 1 mg/kg body weight. Luciferase expression was measured by bioluminescence imaging system Biospace: (a) after 8 hrs of i.m. administration; and (b) after 24 hrs. […] The expression was still high 24 hrs after the administration of LNPs indicating the efficiency of these lipids in delivering mRNA in vivo.

[3] = tested on: Human multiple myeloma suspension cells (U266); test: PLK1 expression by qPCR after siPLK1-LNPs; type: cell-based; conditions: U266, 48 hrs, normalized to LNPs-ctl siRNA treated cells
Protocol: The mRNA levels of pololike kinase 1 (PLK1 gene) in cells was quantified by real-time PCR, forty eight or Seventy-two hours post-transfection. Total RNA was isolated using the E-Z RNA purification kit (Biological industries, Beit Haemek, Israel), and 1 μg of RNA from each sample was reverse transcribed into cDNA using the High Capacity cDNA Reverse Transcription Kit (Applied Biosystems, Foster City, CA), Quantification of cDNA (5 ng total) was performed on the step one Sequence Detection System (Applied Biosystems, Foster City, CA) using syber green (Applied Biosystems). GAPDH was chosen as a housekeeping gene.
Human multiple myeloma suspension cells (U266) were incubated with LNPs containing siPLK1 at different concentrations for 48 hrs. PLK1 expression was measured by qPCR. PLK1-mRNA levels were normalized to LNPs-ctl siRNA treated cells.

[4] = LNP size distribution, PDI and ζ potential by dynamic light scattering; type: physicochemical; conditions: LNP-siRNA formulations
Protocol: LNPs were prepared by using microfluidic micro mixture (Precision NanoSystems, Vancouver, BC, Canada) as described by Cohen et. al. One volume of lipid mixtures (cationic lipid, DSPC, Chol, DMG-PEG and DSPE-PEG Mal at 50:10:38:1.5:0.5 mole ratio, […] total lipid concentration) in ethanol and three volumes of siRNA (1:16 w/w siRNA to lipid) containing acetate buffer solutions were injected through the micro mixer at a combined flow rate of 2 mL/minute (0.5 mL/min for ethanol and 1.5 mL/min for aqueous buffer). For labeled LNPs, 10% of Alexa-647 labeled siRNA were incorporated. For Cy5 labeled particles, 10% Cy5 labeled non-targeted siRNA was used. The resultant mixture was dialyzed against PBS (pH 7.4) for 16 h to remove ethanol.
LNPs size distribution and ζ potential were determined by dynamic light scattering using a Malvern nano ZS ζ-sizer (Malvern instruments, UK). For size measurements, LNPs were diluted 1:20 in PBS. […] For ζ potential measurements, LNPs were diluted 1:200 in DDW. In some cases, as indicated, size and zeta potential measurements were performed in water.

[5] = tested on: Human multiple myeloma suspension cells (U266); test: Cell viability after PLK1 silencing, XTT assay; type: cell-based; conditions: U266, 48 hrs
Protocol: Human multiple myeloma suspension cells (U266) were incubated with siPLK1-LNPs or siCtl-LNPs composed of either lipid 38 or 55 at different concentrations for 48 hrs. Cell viability affected by PLK1 down regulation was measured by XTT assay.

[6] = tested on: Human multiple myeloma suspension cells (MM1); test: Cell viability after PLK1 silencing, XTT assay; type: cell-based; conditions: MM1, 48 hrs
Protocol: Human multiple myeloma suspension cells (MM1) were incubated with siPLK1-LNPs or siCtl-LNPs composed of either lipid 38 or 55 at different concentrations for 48 hrs. Cell viability affected by PLK1 down regulation was measured by XTT assay.

[7] = tested on: murine macrophage cells (RAW 264.7); test: In vitro delivery of luciferase mRNA, luminometer; type: cell-based; conditions: 18 hrs
Protocol: Hard to transfect murine macrophage cells (RAW 264.7) were treated with LNPs composed of either Lipid38 or Lipid 54 and formulated with luciferase mRNA at different amounts of mRNA. After 18 hrs luciferase expression was measured by luminometer.

[8] = tested on: Human colon carcinoma cells (HCT116); test: Toxicity of LNPs with ctl siRNA, XTT cell viability; type: cell-based; conditions: 72 hrs
Protocol: Human colon carcinoma cells (HCT116) were incubated with LNPs with ctl siRNA (see methods) for 72 hrs. The cell viability was measured by XTT assay. Toxicity of LNPs composed of either lipid 38 or lipid 55 is compared with gold standard LNPs composed of Dlin-MC3-DMA.

C57BL6/j mice [9] = test: In vivo delivery of luciferase mRNA to liver, intravenous, bioluminescence imaging; conditions: intravenously, 1 mg/kg body weight
Protocol: LNPs composed of either lipid 54 or lipid 38 formulated with luciferase mRNA were administered intravenously into C57BL6/j mice at 1 mg/kg body weight. After 8 hrs, luciferase expression was measured by bioluminescence imaging system Biospace.
LNPs composed of lipid 38 formulated with luciferase mRNA were administered intravenously into C57BL6/j mice at 1 mg/kg body weight. After 8 hrs and 24 hrs of administration, luciferase expression was measured by bioluminescence imaging system Biospace.

[10] = tested on: Human B-cell lymphoma suspension cells (RPMI-8226); test: Cell viability after PLK1 silencing, XTT assay; type: cell-based; conditions: RPMI-8226, 48 hrs
Protocol: Human B-cell lymphoma suspension cells (RPMI-8226) were incubated with siPLK1-LNPs or siCtl-LNPs composed of either lipid 38 or 55 at different concentrations for 48 hrs. Cell viability affected by PLK1 down regulation was measured by XTT assay.

CCCCC/C=C\C/C=C\CCCCCCCCN(CCCCCCCC/C=C\C/C=C\CCCCC)CCOC(=O)CCCN(C)C [Lipid 38]
Liver toxicity (ALT, AST) (Cynomolgus monkeys): No liver toxicity
Delivery of pDNA to the nucleus [1]: efficiently delivering pDNA to the nucleus
Luciferase expression after 8 hrs (C57BL6/j mice [2]; 8 hrs): significant amounts of luciferase
Luciferase expression after 24 hrs (C57BL6/j mice [2]; 24 hrs): still high
PLK1 expression, siPLK1-LNPs [3]: efficiently down regulate
Zeta-potential (mV) [4]: 6.7 mV
PDI ([4]; DLS): 0.08
Size (d · nm) ([4]; DLS): 59.0 nm
Cell viability, siCtl-LNPs [5]: no effect on the cell viability
Cell viability, siPLK1-LNPs [5]: more effect on cell viability compared to Dlin-MC3-DMA LNPs
Cell viability, siCtl-LNPs [6]: no effect on the cell viability
Cell viability, siPLK1-LNPs [6]: dose dependent effect on multiple myeloma cancer cell viability
Dose dependence of luciferase expression ([7]; RAW 264.7, different amounts of mRNA): dose dependent expression was observed
Luciferase expression ([7]; RAW 264.7, luciferase mRNA LNPs): efficiently compared to lipid 54-LNPs
Toxicity of LNPs (cell viability) [8]: less toxic than LNPs composed of Dlin-MC3-DMA
Luciferase expression in liver, 8 hrs versus 24 hrs (C57BL6/j mice [9]): high after 8 hrs compared to after 24 hrs
Luciferase expression in liver (C57BL6/j mice [9]; 8 hrs, 1 mg/kg): significant amount of luciferase in mouse liver compared to LNPs composed of lipid 54; also recorded: significant amount of luciferase expression was observed in liver
Cell viability, siCtl-LNPs [10]: no effect on the cell viability
Cell viability, siPLK1-LNPs [10]: dose dependent effect on B-cell lymphoma cancer cell viability
